{
  "source": "paper PMC5449454",
  "about": "“Anti-Double-Stranded DNA IgG Participates in Renal Fibrosis through Suppressing the Suppressor of Cytokine Signaling 1 Signals” (Frontiers in Immunology, 2017)",
  "key": {"[1]": {"system": "glomeruli of SCID mice", "assay": "Glomerular IgG deposition (IHC and IF), SCID mice", "format": "in vivo", "conditions": "i.v., anti-dsDNA IgG mixed with D-form ALW before injection, n = 5, versus anti-dsDNA IgG alone", "description": "Renal biopsies were obtained from patients with LN (n = 7), who had serum positivity of anti-dsDNA IgG (Table S1 in Supplementary Material). The diagnosis of LN was made based on the histological features of renal biopsies. For normal human controls, sera and non-lesional tissues were taken from patients (n = 5) who underwent surgical nephrectomy due to renal cell carcinoma or renal rupture (Table S1 in Supplementary Material). There was no statistical difference in term of age between the LN patients and the controls (p > 0.05). […] The MRL/lpr and MRL/MpJ mice (female, 12 or 24 weeks old, n = 5 each group) as well as SCID mice (female, 8 weeks old, n = 5 each group) were bred in the animal facility of Xi’an Jiaotong University Health Science Center. Urine, sera, and renal tissues were harvested from MRL/lpr and MRL/MpJ mice. Proteinuria was quantitated by the Coomassie brilliant blue method ([32]). All data about MRL/lpr and MRL/MpJ mice referred to that at age of 24 weeks unless otherwise noted. These SCID mice received intravenous injections of anti-dsDNA or control IgG at a dose of 100 µg twice weekly, which lasted for 4 weeks (n = 5 each group). Then, both serum and kidney samples were collected from SCID mice. This study was carried out in accordance with the recommendations of the guidelines of the Hospital Research Ethics Committee with written informed consent from all subjects. […]"}, "[2]": {"system": "anti-dsDNA IgG binding to dsDNA antigen", "assay": "Inhibition ELISA, anti-dsDNA IgG binding to dsDNA antigen", "parameters": "species or system murine", "conditions": "anti-dsDNA IgG 2 µg/ml pre-incubated with serially diluted peptide (0.04 to 80 µg/ml); three independent experiments", "description": "(§1) Common ELISAs (for binding to dsDNA or peptide) and inhibition ELISAs were performed as previously described ([8], [35]). Briefly, the KIR ELISA was carried out by adding biotinylated KIR peptide (DTHFRTFRSHSDYRRI, 5 µg/ml) to streptavidin-coated 96-well plates. For inhibition with KIR (or ALW) peptide, anti-dsDNA IgG (2 µg/ml) was pre-incubated with serially diluted peptide (from 0.04 to 80 µg/ml), and then transferred to antigen-coated 96-well plates. Alkaline phosphatase-conjugated goat anti-mouse IgG (2 µg/ml; Southern Biotech) was used as secondary antibody. Similarly, for inhibition with anti-dsDNA IgG, the FITC-labeled JAK2 loop peptide (LPQDKEYYKVKEP, 0.2 µg/ml) was pre-incubated with serially diluted anti-dsDNA IgG (from 0.02 to 20 µg/ml) before transfer to KIR-coated plates, which were detected for fluorescein intensity under a Perkin Elmer Reader (Winpact Scientific, Irvine, CA, USA). Cell surface ELISA was performed by growing mesangial cells in 96-well plates ([8], [35]). All peptides were synthesized by Sangon Biotech Company (Shanghai, China)."}, "[3]": {"system": "glomerular endothelial cells", "assay": "Cell viability (PrestoBlue), glomerular endothelial cells", "format": "cell-based, murine", "conditions": "D-form ALW 1 µg/ml, 2 days", "description": "By using a HiTrap purification kit (GE Healthcare, Port Washington, NY, USA) ([8]), anti-dsDNA IgG was purified from the culture supernatants of murine WJ31 hydridoma clone (IgG2a; Jieqing Biotech). Control murine IgG (IgG2a; Jieqing Biotech) was verified by enzyme-linked immunosorbent assay (ELISA) to determine that there was no binding to DNA antigen (data not shown). Cells were starved routinely before the 2-day stimulation of anti-dsDNA IgG or control IgG (2 µg/ml). In some experiments, mesangial cells were stimulated with anti-dsDNA IgG (2 µg/ml) that was premixed with D-form (ALWPPNLHAWVP) or scrambled (PLPHNPWVLAAW) ALW peptide (1 µg/ml). The cell viability of three types of cells was measured using PrestoBlue viability reagent (Life Technologies, Carlsbad, CA, USA).\nMesangial Glomerular Tubular cells endothelial epithelial\nSupplementary Figure S7. Cell viability assays of kidney cells. (A) Murine cells were cultured in vitro, and received control or anti-dsDNA IgG stimulation (2 µg/ml, 2 days). (B) Similarly, these cells were also stimulated with scrambled or D-form ALW peptide (1 µg/ml, 2 days). The cell viability was measured using PrestoBlue viability reagent. Data were from three independent experiments. Data points and error bars […]\n(also on this page, place not known: µ g/ml,2 µ g/ml,2 Cell viability (%) Cell viability (%))"}, "[4]": {"system": "kidneys of SCID mice", "assay": "Renal mRNA levels by real-time PCR, SCID mice", "format": "in vivo", "conditions": "i.v.", "description": "Renal biopsies were obtained from patients with LN (n = 7), who had serum positivity of anti-dsDNA IgG (Table S1 in Supplementary Material). The diagnosis of LN was made based on the histological features of renal biopsies. For normal human controls, sera and non-lesional tissues were taken from patients (n = 5) who underwent surgical nephrectomy due to renal cell carcinoma or renal rupture (Table S1 in Supplementary Material). There was no statistical difference in term of age between the LN patients and the controls (p > 0.05). […] The MRL/lpr and MRL/MpJ mice (female, 12 or 24 weeks old, n = 5 each group) as well as SCID mice (female, 8 weeks old, n = 5 each group) were bred in the animal facility of Xi’an Jiaotong University Health Science Center. Urine, sera, and renal tissues were harvested from MRL/lpr and MRL/MpJ mice. Proteinuria was quantitated by the Coomassie brilliant blue method ([32]). All data about MRL/lpr and MRL/MpJ mice referred to that at age of 24 weeks unless otherwise noted. These SCID mice received intravenous injections of anti-dsDNA or control IgG at a dose of 100 µg twice weekly, which lasted for 4 weeks (n = 5 each group). Then, both serum and kidney samples were collected from SCID mice. This study was carried out in accordance with the recommendations of the guidelines of the Hospital Research Ethics Committee with written informed consent from all subjects. All subjects gave written informed consent in accordance with the Declaration of Helsinki. The protocol was approved by the Hospital Research Ethics Committee.\nAs previously described ([8]), total RNA was extracted from fresh tissues or cultured cells, followed by reverse transcription. The 7900HT Fast PCR System (Applied Biosystems, Carlsbad, CA, USA) was used for PCR, and SYBR Green Master Mixes (Invitrogen, Grand Island, NY, USA) was used as fluorescent dye. The sequences of primers (Jieqing Biotech) are listed in Table S2 in Supplementary Material."}, "[5]": {"system": "anti-dsDNA IgG binding to SOCS1-KIR peptide", "assay": "Inhibition ELISA, anti-dsDNA IgG binding to SOCS1-KIR peptide", "parameters": "species or system murine", "conditions": "anti-dsDNA IgG 2 µg/ml pre-incubated with serially diluted peptide (0.04 to 80 µg/ml); three independent experiments", "description": "as §1"}, "[6]": {"system": "anti-dsDNA IgG binding to mesangial cells", "assay": "Inhibition cell surface ELISA, anti-dsDNA IgG binding to mesangial cells", "format": "cell-based, murine", "conditions": "anti-dsDNA IgG premixed with D-form or scrambled ALW peptide; three independent experiments", "description": "as §1"}, "[7]": {"conditions": "D-form ALW plus anti-dsDNA IgG, n = 5, versus anti-dsDNA IgG alone"}, "[8]": {"conditions": "anti-dsDNA IgG pre-mixed with D-form ALW, n = 5"}},
  "note": "“Also recorded” adds a separate entry of the source.",
  "data": [
    {"sequence": "ALWPPNLHAWVP [D-form ALW, ALW peptide with two terminal residues A and P replaced with D-form ones]", "values": [
      {"measurement": "glomerular IgG deposition, ALW plus anti-dsDNA IgG", "setting": "[1]", "result": "less IgG deposition; also recorded: significant reduction"},
      {"measurement": "inhibition of anti-dsDNA IgG binding to DNA antigen", "setting": "[2]", "result": "inherited the inhibitory property of the (natural) ALW"},
      {"measurement": "cell viability", "setting": "[3]", "result": "no changes"},
      {"measurement": "renal JAK2 mRNA level, ALW plus anti-dsDNA IgG", "setting": "[4]; [7]", "result": "reduced"},
      {"measurement": "renal SOCS1 mRNA level, ALW plus anti-dsDNA IgG", "setting": "[4]; [7]", "result": "not affected"},
      {"measurement": "renal STAT1 mRNA level, ALW plus anti-dsDNA IgG", "setting": "[4]; [7]", "result": "reduced"},
      {"measurement": "renal PDGFB mRNA level, ALW plus anti-dsDNA IgG", "setting": "[4]; [8]", "result": "substantial decrease"},
      {"measurement": "renal TGF-β1 mRNA level, ALW plus anti-dsDNA IgG", "setting": "[4]; [8]", "result": "substantial decrease"},
      {"measurement": "renal TWEAK mRNA level, ALW plus anti-dsDNA IgG", "setting": "[4]; [8]", "result": "substantial decrease"},
      {"measurement": "inhibition of anti-dsDNA IgG binding to SOCS1-KIR peptide", "setting": "[5]", "result": "inhibited"},
      {"measurement": "inhibition of anti-dsDNA IgG binding to mesangial cells", "setting": "[6]", "result": "inhibited"}
    ]}
  ]
}
